Measured values reported in US20060222595A1, “Nanoparticles for therapeutic and diagnostic applications” (priority 2005, published 2006).

Assay: Saturation concentration of agents on gold nanoparticles (UV-Visible absorbance)
Assay type: physicochemical
Protocol: The individual saturation concentrations of a monoclonal anti-VEGF antibody agent and a gemcitabine agent to gold nanoparticles were determined in the following manner. Eight tubes containing 1 ml of gold nanoparticles each were incubated with increasing concentrations of the anti-VEGF antibody for 30 minutes, followed by an aggregation assay involving incubation with 100 μl of a 10% NaCl solution. Approximately 15 min. after the addition of the NaCl solution, the UV-Visible spectra were recorded using a Shimadzu model system (UV2401 PC), and the saturation concentration of the antibody was determined.
The attachment of gemcitabine to the gold nanoparticles and the determination of its saturation concentration were performed similarly.
The saturation concentration of gemcitabine on the gold nanoparticles was determined in a similar manner. Gold nanoparticles were incubated with different concentrations of gemcitabine for 30 min., and their UV-Visible spectra were recorded. […] This shift in Ymax value with a concomitant decrease in absorbance and a broadening of the spectra may be attributed to the aggregation of gold nanoparticles upon the addition of gemcitabine beyond the 20 μg limit. […]

| saturation concentration of dopamine on gold nanoparticles (surface plasmon resonance band, UV-visible spectroscopy) | saturation concentration of gemcitabine on gold nanoparticles (absorbance maximum) (30 min incubation, UV-Visible spectra) | SMILES |
| --- | --- | --- |
| ~30 µg/mL |  | NCCc1ccc(O)c(O)c1 [dopamine] |
|  | 20 µg | Nc1ccn([C@@H]2O[C@H](CO)[C@@H](O)C2(F)F)c(=O)n1 [gemcitabine] |
